Active and inactive are the calls of the source.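 The calls were made as follows: active = inhibition of 30% or more at 50 µM, though no compound was called active; inactive = inhibition below 30% at 50 µM.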
Target: Serine/threonine-protein phosphatase 2A catalytic subunit alpha isoform (Bos taurus) (UniProt P67774)
Test: inhibitors of bovine PP2A histone dephosphorylation – biochemical, bovine brain PP2A, 33P-phosphohistone, single concentration, round 5, selectivity assay for PP5 inhibitor project, late-stage follow-up (AID 624443)
Conditions: purified bovine PP2A, 33P-phosphohistone dephosphorylation, scintillation; at 50 µM; hits give high values

Chain of Serine/threonine-protein phosphatase 2A catalytic subunit alpha isoform (Bos taurus) (P67774 whole entry, looked up, canonical isoform): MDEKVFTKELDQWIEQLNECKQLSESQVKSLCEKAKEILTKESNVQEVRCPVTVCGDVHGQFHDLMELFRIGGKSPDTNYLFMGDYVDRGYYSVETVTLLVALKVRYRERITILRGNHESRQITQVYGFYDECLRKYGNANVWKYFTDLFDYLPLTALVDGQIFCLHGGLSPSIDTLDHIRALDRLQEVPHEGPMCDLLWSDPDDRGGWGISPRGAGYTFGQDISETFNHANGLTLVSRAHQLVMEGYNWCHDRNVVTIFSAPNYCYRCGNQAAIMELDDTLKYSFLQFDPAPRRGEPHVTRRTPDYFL

Row | SMILES | inhibition
1 | COc1cccc(-c2n[nH]nc2C(=O)O)c1 | 3.7% (inactive)
2 | O=C(O)c1n[nH]nc1-c1ccccc1O | 0.275% (inactive)
3 | O=C(O)c1n[nH]nc1-c1ccc(F)cc1 | -0.575% (inactive)
4 | COc1ccccc1-c1n[nH]nc1C(=O)O | 24.7% (inactive)
5 | O=C(O)c1n[nH]nc1-c1cccc(F)c1 | 1.89% (inactive)
6 | O=C(O)c1n[nH]nc1-c1ccccc1F | 3.76% (inactive)
7 | COc1ccc(-c2n[nH]nc2C(=O)O)cc1 | -5.38% (inactive)
